Measured values taken from PubChem BioAssay (NCI).
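Cultured in 96-well plates, cells were exposed to test compound for 48 hours across five concentrations. TGI is the concentration that stops growth completely.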

Tests used:
Assay in all cases: NCI tumour cell line growth inhibition, 48 h
[1] = test system: SW-620 colon
[2] = test system: KM12 colon
[3] = test system: NCI-H226 lung
[4] = test system: RXF-631 renal
[5] = test system: MOLT-4 leukemia
[6] = test system: DMS 273 small cell lung
[7] = test system: RPMI-8226 leukemia
[8] = test system: LOX IMVI melanoma
[9] = test system: CAKI-1 renal
[10] = test system: LXFL 529 NSCLC
[11] = test system: NCI-H23 lung
[12] = test system: OVCAR-3 ovarian
[13] = test system: HL-60(TB) leukemia
[14] = test system: M14 melanoma
[15] = test system: UO-31 renal
[16] = test system: HCT-15 colon
[17] = test system: CCRF-CEM leukemia
[18] = test system: A498 renal
[19] = test system: HCC-2998 colon
[20] = test system: UACC-62 melanoma
[21] = test system: DLD-1 colon
[22] = test system: SN12C renal
[23] = test system: SF-268 CNS
[24] = test system: U251 CNS
[25] = test system: OVCAR-4 ovarian
[26] = test system: SNB-19 CNS
[27] = test system: HT29 colon
[28] = test system: SK-OV-3 ovarian
[29] = test system: TK-10 renal
[30] = test system: MALME-3M melanoma
[31] = test system: UACC-257 melanoma
[32] = test system: SNB-78 CNS
[33] = test system: SK-MEL-5 melanoma
[34] = test system: XF 498 CNS
[35] = test system: OVCAR-5 ovarian
[36] = test system: COLO 205 colon
[37] = test system: HOP-92 NSCLC
[38] = test system: NCI-H522 lung
[39] = test system: ACHN renal
[40] = test system: IGROV1 ovarian
[41] = test system: SF-295 CNS
[42] = test system: OVCAR-8 ovarian
[43] = test system: KM20L2 colon
[44] = test system: HOP-62 NSCLC
[45] = test system: NCI-H460 lung
[46] = test system: K-562 leukemia
[47] = test system: 786-0 renal
[48] = test system: SF-539 CNS
[49] = test system: EKVX NSCLC
[50] = test system: A549 NSCLC
[51] = test system: M19-MEL melanoma
[52] = test system: SK-MEL-28 melanoma
[53] = test system: HCT-116 colon
[54] = test system: SNB-75 CNS
[55] = test system: MCF7 breast
[56] = test system: DMS 114 small cell lung
[57] = test system: SK-MEL-2 melanoma
[58] = test system: P388/ADR leukemia
[59] = test system: HOP-18 NSCLC
[60] = test system: SN12K1 renal
[61] = test system: P388 leukemia
[62] = test system: NCI/ADR-RES ovarian
[63] = test system: RXF 393 renal
[64] = test system: SR leukemia

CCOC(=O)c1cc(/C=C/C(C)=C/C(=O)OC)n(C)c1C
TGI [1]: > 100 µM | TGI [2]: > 100 µM | TGI [3]: > 100 µM | TGI [4]: > 100 µM | TGI [5]: > 100 µM | TGI [6]: > 100 µM | TGI [7]: > 100 µM | TGI [8]: > 100 µM | TGI [9]: > 100 µM | TGI [10]: > 100 µM | TGI [11]: > 100 µM | TGI [12]: > 100 µM | TGI [13]: > 100 µM | TGI [14]: > 100 µM | TGI [15]: > 100 µM | TGI [16]: > 100 µM | TGI [17]: > 100 µM | TGI [18]: > 100 µM | TGI [19]: > 100 µM | TGI [20]: > 100 µM | TGI [21]: > 100 µM | TGI [22]: > 100 µM | TGI [23]: > 100 µM | TGI [24]: > 100 µM | TGI [25]: > 100 µM | TGI [26]: > 100 µM | TGI [27]: > 100 µM | TGI [28]: > 100 µM | TGI [29]: > 100 µM | TGI [30]: > 100 µM | TGI [31]: > 100 µM | TGI [32]: > 100 µM | TGI [33]: > 100 µM | TGI [34]: > 100 µM | TGI [35]: > 100 µM | TGI [36]: > 100 µM | TGI [37]: > 100 µM | TGI [38]: > 100 µM | TGI [39]: > 100 µM | TGI [40]: > 100 µM | TGI [41]: > 100 µM | TGI [42]: > 100 µM | TGI [43]: > 100 µM | TGI [44]: > 100 µM | TGI [45]: > 100 µM | TGI [46]: > 100 µM | TGI [47]: > 100 µM | TGI [48]: > 100 µM | TGI [49]: > 100 µM | TGI [50]: > 100 µM | TGI [51]: > 100 µM

CC(=O)Oc1ccc(C2COc3cc(OC(C)=O)c(OC(C)=O)cc3C2)cc1 (stereo not given)
TGI [1]: 35.9 µM | TGI [52]: 34.2 µM | TGI [2]: 69.5 µM | TGI [3]: 54.7 µM | TGI [53]: 33.9 µM | TGI [5]: 62 µM | TGI [6]: 61.6 µM | TGI [7]: 58.8 µM | TGI [8]: > 55.5 µM | TGI [9]: 27.3 µM | TGI [11]: 37.7 µM | TGI [12]: 25.2 µM | TGI [13]: 20.3 µM | TGI [15]: 59.4 µM | TGI [16]: 40.8 µM | TGI [54]: 32.6 µM | TGI [17]: 58.1 µM | TGI [18]: 13.8 µM | TGI [19]: 46.8 µM | TGI [20]: 24.2 µM | TGI [21]: 38 µM | TGI [22]: 52 µM | TGI [23]: 51.6 µM | TGI [55]: 35.2 µM | TGI [56]: 17.1 µM | TGI [24]: 60.4 µM | TGI [25]: 29.1 µM | TGI [26]: > 100 µM | TGI [27]: > 81.5 µM | TGI [57]: 41.5 µM | TGI [28]: 38.7 µM | TGI [58]: > 53.6 µM | TGI [59]: 46.8 µM | TGI [30]: 31 µM | TGI [31]: 34.9 µM | TGI [32]: 80.2 µM | TGI [33]: 6.63 µM | TGI [34]: 25.9 µM | TGI [60]: 35.9 µM | TGI [35]: > 97.1 µM | TGI [36]: 35.4 µM | TGI [37]: 24.9 µM | TGI [38]: 7.78 µM | TGI [61]: 37.1 µM | TGI [40]: 31.2 µM | TGI [41]: 58.5 µM | TGI [42]: 35.6 µM | TGI [43]: 75.5 µM | TGI [44]: 48 µM | TGI [45]: 47.3 µM | TGI [46]: 51.7 µM | TGI [48]: 40.2 µM | TGI [49]: 32 µM | TGI [62]: 48.7 µM | TGI [50]: 57.3 µM | TGI [63]: 23.8 µM | TGI [51]: 33.2 µM

CCOC(=O)CC1NC(=O)CS1 (stereo not given)
TGI [1]: 37.4 µM | TGI [52]: > 100 µM | TGI [2]: > 100 µM | TGI [3]: 48.1 µM | TGI [53]: 61.7 µM | TGI [4]: > 100 µM | TGI [5]: > 100 µM | TGI [6]: > 100 µM | TGI [7]: 60.1 µM | TGI [9]: > 100 µM | TGI [10]: > 100 µM | TGI [11]: > 100 µM | TGI [12]: > 100 µM | TGI [13]: > 100 µM | TGI [14]: > 100 µM | TGI [15]: > 100 µM | TGI [16]: 45.1 µM | TGI [54]: > 100 µM | TGI [17]: > 100 µM | TGI [18]: > 100 µM | TGI [19]: > 100 µM | TGI [20]: > 100 µM | TGI [21]: > 100 µM | TGI [22]: > 100 µM | TGI [23]: > 100 µM | TGI [56]: 57.8 µM | TGI [24]: > 100 µM | TGI [25]: > 100 µM | TGI [26]: > 100 µM | TGI [27]: > 100 µM | TGI [28]: > 100 µM | TGI [59]: > 100 µM | TGI [29]: > 100 µM | TGI [30]: > 100 µM | TGI [31]: > 100 µM | TGI [32]: > 100 µM | TGI [33]: > 100 µM | TGI [35]: > 100 µM | TGI [36]: 16.3 µM | TGI [37]: > 100 µM | TGI [39]: > 100 µM | TGI [40]: > 100 µM | TGI [41]: > 100 µM | TGI [42]: > 100 µM | TGI [43]: > 100 µM | TGI [44]: > 100 µM | TGI [45]: > 100 µM | TGI [46]: > 100 µM | TGI [47]: > 100 µM | TGI [48]: > 100 µM | TGI [49]: > 100 µM | TGI [50]: > 100 µM | TGI [51]: > 100 µM

CCN(CC)C1CC(n2cc(C)c(=O)[nH]c2=O)OC1CO (stereo not given)
TGI [52]: > 100 µM | TGI [3]: > 100 µM | TGI [53]: > 100 µM | TGI [4]: > 100 µM | TGI [5]: > 100 µM | TGI [6]: > 100 µM | TGI [7]: > 100 µM | TGI [9]: > 100 µM | TGI [10]: > 100 µM | TGI [64]: > 100 µM | TGI [11]: > 100 µM | TGI [13]: > 100 µM | TGI [14]: > 100 µM | TGI [15]: > 100 µM | TGI [54]: > 100 µM | TGI [17]: > 100 µM | TGI [18]: > 100 µM | TGI [19]: > 100 µM | TGI [20]: > 100 µM | TGI [21]: > 100 µM | TGI [22]: > 100 µM | TGI [23]: > 100 µM | TGI [56]: > 100 µM | TGI [25]: > 100 µM | TGI [57]: > 100 µM | TGI [28]: > 100 µM | TGI [30]: > 100 µM | TGI [32]: > 100 µM | TGI [34]: > 100 µM | TGI [36]: > 100 µM | TGI [37]: > 100 µM | TGI [38]: > 100 µM | TGI [40]: > 100 µM | TGI [44]: > 100 µM | TGI [45]: > 100 µM | TGI [46]: > 100 µM | TGI [47]: > 100 µM | TGI [48]: > 100 µM | TGI [51]: > 100 µM
